Experimental data taken from PMC7673538 (PLoS Biology, 2020).
Several values for one entry are separate records, joined by “and”; a condition that tells them apart may be missing. Equal values may be shown once. Read-outs that look alike come from different tables or passages of the source.

Tests used:
[1] = system: CV-A24; assay: microbe, parasite or virus in culture; format: cell-based, coxsackievirus A24
[2] = system: EV-D68; assay: microbe, parasite or virus in culture; format: cell-based, enterovirus D68; details: for EC50: Enterovirus D
[3] = system: EV-A71 (strain BrCr); format: cell-based, enterovirus A71
[4] = system: CV-B3 (strain Nancy); format: cell-based, coxsackievirus B3
[5] = system: all representative viruses; format: cell-based
[6] = system: Rluc-CV-B3; format: cell-based; details: Fig 3B
[7] = target: T1, human DAT (Homo sapiens, UniProt Q01959); format: cell-based; details: for DAT, Mean (Figure 8B): Control = 100; for DAT, Mean as % (Figure 8B): Control = 100%; for inhibition of DAT function (in words): HEK293 cells expressing human DAT, 1 μM or 100 μM
T1 construct: expressed in transfected cells; host or cells: HEK293 (gift of Dr. Hoener, F. Hoffmann-La Roche)
T1 sequence (Q01959 whole entry): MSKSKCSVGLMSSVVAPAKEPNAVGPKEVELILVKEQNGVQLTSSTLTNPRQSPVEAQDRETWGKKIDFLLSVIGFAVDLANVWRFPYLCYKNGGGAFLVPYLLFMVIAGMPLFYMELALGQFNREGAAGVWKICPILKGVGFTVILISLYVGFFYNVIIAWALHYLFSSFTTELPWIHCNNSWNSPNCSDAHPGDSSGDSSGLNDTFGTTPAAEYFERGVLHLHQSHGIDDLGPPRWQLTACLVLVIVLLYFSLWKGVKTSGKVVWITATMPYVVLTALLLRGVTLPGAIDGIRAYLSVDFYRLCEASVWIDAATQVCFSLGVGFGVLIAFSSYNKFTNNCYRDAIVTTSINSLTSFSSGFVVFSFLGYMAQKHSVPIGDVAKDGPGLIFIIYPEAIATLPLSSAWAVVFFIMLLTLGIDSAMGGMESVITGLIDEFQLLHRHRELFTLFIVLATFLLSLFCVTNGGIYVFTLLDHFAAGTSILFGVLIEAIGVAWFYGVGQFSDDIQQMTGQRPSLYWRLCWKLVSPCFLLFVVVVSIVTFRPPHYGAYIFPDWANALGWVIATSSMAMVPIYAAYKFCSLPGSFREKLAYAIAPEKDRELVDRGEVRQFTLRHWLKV

[8] = system: HeLa R19 cells
[9] = Enterovirus C, CVA24, HeLa R19, read-out: EC50 CV-A24
[10] = Enterovirus C, CVA24, HeLa R19, read-out: EC50 CV-A24 strain Joseph
[11] = Enterovirus C, CVA24, HeLa R19, read-out: EC50 Exp1
[12] = Enterovirus C, CVA24, HeLa R19, read-out: EC50 Exp2
[13] = EVD68, HeLa R19, […], read-out: EC50 Exp1
[14] = EVD68, HeLa R19, read-out: EC50 Average
[15] = EVD68, HeLa R19, read-out: EC50 EV-D68
[16] = EVD68, HeLa R19, read-out: EC50 EV-D68 strain 4310900947
[17] = EVD68, HeLa R19, read-out: EC50 EV-D68 strain 4310901348
[18] = EVD68, HeLa R19, read-out: EC50 EV-D68 strain 4310902042
[19] = EVD68, HeLa R19, read-out: EC50 EV-D68 strain 4310902284
[20] = EVD68, HeLa R19, read-out: EC50 EV-D68 strain 4311000742
[21] = EVD68, HeLa R19, read-out: EC50 EV-D68 strain Fermon
[22] = EVD68 / genotype 2c, HeLa R19, read-out: EC50 EV-D68 WT

COc1ccc(N(Cc2ccc(F)cc2)C(=O)c2cc[nH]c2)cc1 [Compound 12a, N-(4-Fluorobenzyl)-N-(4-methoxyphenyl)-1H-pyrrole-3-carboxamide]
EC50 ([1]; Enterovirus C, CVA24, HeLa R19, read-out: EC50 Average): 3460 nM
EC50 [1, 9]: 3510 ± 220 nM
EC50 [1, 10]: 3450 ± 420 nM
EC50 [1, 11]: 3290 nM
EC50 [1, 12]: 3730 nM
EC50 ([1]; read-out: EC50 Exp1): 3040 nM
EC50 ([1]; read-out: EC50 Exp2): 3870 nM
cross-resistance of 19d-resistant EV-D68 virus pools (in words) [2]: cross-resistance
Figure 7 dose-response raw data, EV-D68 (triplicate values) ([2]; Concentration 0.001 µM): 11.1333 and 12.4782 and 12.9265
Figure 7 dose-response raw data, EV-D68 (triplicate values) ([2]; Concentration 0.0137 µM): 9.388 and 8.898 and 11.4747
Figure 7 dose-response raw data, EV-D68 (triplicate values) ([2]; Concentration 0.0412 µM): 11.1333 and 12.4782 and 12.9265
Figure 7 dose-response raw data, EV-D68 (triplicate values) ([2]; Concentration 0.1235 µM): 10.386 and 11.4321 and 12.9265
Figure 7 dose-response raw data, EV-D68 (triplicate values) ([2]; Concentration 0.3704 µM): 8.529 and 8.161 and 15.8928
Figure 7 dose-response raw data, EV-D68 (triplicate values) ([2]; Concentration 1.1111 µM): 91.9917 and 94.6194 and 110.886
Figure 7 dose-response raw data, EV-D68 (triplicate values) ([2]; Concentration 3.3333 µM): 101.502 and 102.252 and 110.761
Figure 7 dose-response raw data, EV-D68 (triplicate values) ([2]; Concentration 10 µM): 100.876 and 104.38 and 113.014
EC50 [2, 13]: 3040 nM
EC50 [2, 14]: 1250 nM
EC50 [2, 15]: 1080 ± 200 nM
EC50 [2, 16]: 1840 ± 400 nM
EC50 [2, 17]: 2720 ± 960 nM
EC50 [2, 18]: 1440 ± 230 nM
EC50 [2, 19]: 2310 ± 820 nM
EC50 [2, 20]: 1860 ± 160 nM
EC50 [2, 21]: 1230 ± 160 nM
EC50 [2, 22]: 1250 ± 90 nM
virus titer, TCID50/ml (Figure 2A) ([3]; compound concentration 1 µM): 316228 TCID50/ml
virus titer, TCID50/ml (Figure 2A) ([3]; compound concentration 3 µM): 316.228 TCID50/ml
virus titer, TCID50/ml (Figure 2A) ([3]; compound concentration 10 µM): 316.228 TCID50/ml
virus titer, TCID50/ml (Figure 2A) ([3]; compound concentration 30 µM): 316.228 TCID50/ml
virus titer, TCID50/ml (Figure 2A) ([3]; compound concentration 100 µM): 316.228 TCID50/ml
virus titer, TCID50/ml (Figure 2A) ([3]; compound concentration 150 µM): 316.228 TCID50/ml
virus titer, TCID50/ml (Figure 2A) ([4]; compound concentration 0.001 µM): 316227800 TCID50/ml and 467735100 TCID50/ml
virus titer, TCID50/ml (Figure 2A) ([4]; compound concentration 0.01 µM): 467735100 TCID50/ml and 316227800 TCID50/ml
inhibition in single-cycle viral replication assay (in words) [5]: inhibited all representative viruses
resistance profile against Rluc-CV-B3 2C mutants (in words) [6]: resembled that of the parental compound 1 and (S)-fluoxetine
DAT, Mean (Figure 8B) ([7]; 1µM): 80.4016
DAT, Mean as % (Figure 8B) ([7]; 1µM): 80%
DAT, Mean (Figure 8B) ([7]; 100µM): 86.9569
DAT, Mean as % (Figure 8B) ([7]; 100µM): 87%
inhibition of DAT function (in words) [7]: neither 12a, 19b, 19d, nor the combined compound 12b inhibited
cytotoxic effect in parallel to single-cycle assay (in words) [8]: none of them showed any cytotoxic effect

O=C(c1ccco1)N(Cc1ccc(F)cc1)c1ccccc1 [Compound 19b, N-(4-Fluorobenzyl)-N-phenylfuran-2-carboxamide]
EC50 [1, 9]: 6390 ± 740 nM
EC50 [1, 10]: 4990 ± 610 nM
EC50 [1, 11]: 5650 nM
EC50 [1, 12]: 7120 nM
EC50 ([1]; read-out: EC50 Exp1): 4380 nM
EC50 ([1]; read-out: EC50 Exp2): 5600 nM
cross-resistance of 19d-resistant EV-D68 virus pools (in words) [2]: cross-resistance
EC50 [2, 13]: 1870 nM
EC50 [2, 14]: 830 nM
EC50 [2, 15]: 500 ± 260 nM
EC50 [2, 16]: 1850 ± 180 nM
EC50 [2, 17]: 1710 ± 680 nM
EC50 [2, 18]: 910 ± 920 nM
EC50 [2, 19]: 1290 ± 210 nM
EC50 [2, 20]: 1310 ± 900 nM
EC50 [2, 21]: 580 ± 100 nM
EC50 [2, 22]: 830 ± 90 nM
DAT, Mean (Figure 8B) ([7]; 1µM): 94.861
DAT, Mean as % (Figure 8B) ([7]; 1µM): 95%
DAT, Mean (Figure 8B) ([7]; 100µM): 75.9783
DAT, Mean as % (Figure 8B) ([7]; 100µM): 76%
inhibition of DAT function (in words) [7]: neither 12a, 19b, 19d, nor the combined compound 12b inhibited
